One compound from patent US20080138812A1, “Screening Method For Competitive Hiv Rt Inhibitors” (priority 2005, published 2008) can be followed below.

One assay concerns the target HIV RT (Human immunodeficiency virus type 1 group M subtype B, UniProt P04585). As to the kind of experiment: enzyme kinetics studies (1/v versus 1/[dTTP]). It is filed as biochemical. The note with it: 40-3 μM dTTP, 2-0 μM compound, poly(rA)oligo(dT); lines cross at Y-axis intercept. As to the method:
The enzyme kinetics studies were carried out using a protocol involving a 4×5 matrix of varying substrate and inhibitor concentrations over ranges of 40-3 μM of dTTP and 2-0 μM of compound 1.
The reaction mixtures (50 μl) further contained 50 mM Tris.HCl (pH 7.8), 5 mM dithiothreitol, […], 500 μM EDTA, 150 mM KCl, 5 mM MgCl2, 0.15 mM of the template/primer poly(rA)oligo(dT) and 0.06% Triton X-100.
The reaction mixtures were incubated at 37° C. for 15 min, at which time 100 μl of calf thymus DNA (150 pg/ml), 2 ml of Na4P2O7 (0.1 M in 1 M HCl), and 2 ml of trichloroacetic acid (10% v/v) were added. The solutions were kept on ice for 30 min, after which the acid-insoluble material was washed and analyzed for radioactivity. When the reciprocal of the reaction velocity (1/v) is plotted against the reciprocal of the substrate concentration (1/[dTTP]) in the presence of different concentrations of compound 1, the graph (See FIG. 1) is obtained.

The subject of assay [1] is site-directed mutant of wild-type HIV-1 (HXB2) that contains the K103N and Y181C mutation. In words: anti-viral cellular assay, MT4 cells, MTT readout, NNRTI-resistant mutant virus. It is filed as cell-based. The note with it: Human immunodeficiency virus 1, HXB2, MT4. The protocol: HIV- or mock-infected MT4 cells were incubated for five days in the presence of various concentrations of the test compound. At the end of the incubation period, the replicating virus in the control cultures had killed all HIV-infected cells in the absence of any inhibitor. Cell viability was determined by measuring the concentration of MTT, a yellow, water soluble tetrazolium dye that is converted to a purple, water insoluble formazan in the mitochondria of living cells only. Upon solubilization of the resulting formazan crystals with isopropanol, the absorbance of the solution was monitored at 540 nm. The values correlate directly to the number of living cells remaining in the culture at the completion of the five day incubation. The inhibitory activity of the compound was monitored on the virus-infected cells and was expressed as EC50 and EC90. These values represent the amount of the compound required to protect 50% and 90%, respectively, of the cells from the cytopathogenic effect of the virus. The toxicity of the compound was measured on the mock-infected cells and was expressed as CC50, which represents the concentration of compound required to inhibit the growth of the cells by 50%. […] Wherever results are reported as e.g. pEC50 or pCC50 values, the result is expressed as the negative logarithm of the result expressed as EC50 or CC50 respectively. […]

The target of assay [2] is T1, HIV Reverse Transcriptase (Human immunodeficiency virus type 1 group M subtype B, UniProt P04585).
T1 construct: purchased Amersham Life Sciences TRK 1022
In words: in vitro inhibition of HIV reverse transcriptase in presence and absence of ATP or other nucleoside phosphates (kit TRK 1022). It is filed as biochemical. As to the method:
The assay was run using kit TRK 1022™ (Amersham Life Sciences) according to the manufacturer's instructions with slight modifications. Test compounds were diluted in steps of ¼ in 100% DMSO and subsequently diluted 1/50 in Medium A (RPMI 1640+10% fetal calf serum, […] gentamycin).
In each experiment three conditions were tested: wells filled with 25 μl of the above compound solutions, wells filled with 25 μl 2% DMSO in Medium A (RO) and wells filled with 100 μl Stopsolution and 25 μl DMSO in Medium A (RI). To each well was added 25.5 μl master mix (5 μl primer/template beads, 10 μl assay buffer, 0.5 μl tracer (50 μM [3H]-dTTP), 5 μl HIV RT enzyme solution (15 mU/μl), 5 μl Medium A). The plates were sealed, and incubated during 4 hours at 37° C. Subsequently, 100 μl stop solution was added to each well (except RI). The radioactivity was counted in a TopCount™.
For testing compound inhibition in the presence of ATP the same protocol as above was used but the Medium A in the master mix was replaced with Medium A containing 320 mM ATP.
The procedures of example 1 were repeated but ATP was changed by a number of other nucleoside phosphates. The following table lists the tested nucleoside phosphates and the IC50 values in μM of compound 1 obtained in the presence of the concerned nucleoside phosphate.

The subject of assay [3] is wild-type HIV-1 (LAI strain). As to the kind of experiment: anti-viral cellular assay, HIV-infected MT4 cells, MTT readout, wild-type virus. As to conditions: Human immunodeficiency virus 1, 120 h, five days. It is filed as cell-based. As to the method: The test compounds are examined for anti-viral activity in a cellular assay performed according to the following procedure.
HIV- or mock-infected MT4 cells were incubated for five days in the presence of various concentrations of the test compound. At the end of the incubation period, the replicating virus in the control cultures had killed all HIV-infected cells in the absence of any inhibitor. Cell viability was determined by measuring the concentration of MTT, a yellow, water soluble tetrazolium dye that is converted to a purple, water insoluble formazan in the mitochondria of living cells only. Upon solubilization of the resulting formazan crystals with isopropanol, the absorbance of the solution was monitored at 540 nm. The values correlate directly to the number of living cells remaining in the culture at the completion of the five day incubation. The inhibitory activity of the compound was monitored on the virus-infected cells and was expressed as EC50 and EC90. These values represent the amount of the compound required to protect 50% and 90%, respectively, of the cells from the cytopathogenic effect of the virus. […] Wherever results are reported as e.g. pEC50 or pCC50 values, the result is expressed as the negative logarithm of the result expressed as EC50 or CC50 respectively.

pEC50, pIC50: −log10 of the molar value.

As a reminder, the pEC50 is −log10 of the EC50, conventionally taken in molar units. A lower pEC50 goes with a high EC50. As usually defined, the pIC50 is the negative decadic logarithm of the IC50, by convention in mol/L. As to `Cn1c2ccccc2c2c1cc(C#N)c(=O)n2-c1ccc([N+](=O)[O-])cc1` [Compound 1], the “mode of HIV RT inhibition” value at HIV RT is on record as “competitive mode of HIV RT inhibition”. For the same compound, the pEC50 in assay [1] was 7.01; in assay [3] it was 7.35. In addition, the pIC50 in assay [2] (in the absence of ATP) was 6.52; in assay [2] (in the presence of ADP) it was 7.64; in assay [2] (in the presence of AMP) it was 7.75; in assay [2] (in the presence of ATP (Medium A in master mix containing 320 mM ATP)) it was 7.80; in assay [2] (in the presence of ATPbgNH), 7.61; in assay [2] (in the presence of ATPgS), 7.91. The pIC50 in assay [2] (in the presence of CTP) was 6.94; in assay [2] (in the presence of GTP), 7.15; in assay [2] (in the presence of PPi), 6.70; in assay [2] (in the presence of UTP) it was 7.28.
